Results: paper PMC7168207, “Dibasic Derivatives of Phenylcarbamic Acid as Prospective Antibacterial Agents Interacting with Cytoplasmic Membrane” (Antibiotics, 2020)
Values joined by “and” are separate entries in the source; they are usually repeats but may differ in a detail not shown here. Equal values may be shown once. Marks after values point to notes of the source that are not given here.

What was measured:
[1] = test system: Candida albicans CCM 8261; test: minimum fungistatic concentration, RPMI 1640; type: cell-based; conditions: CCM8261, CA = C albicans CCM 8261, 48 h
Method: Fungistatic activity was tested similarly in RPMI (Roswell Park Memorial Institute) 1640 medium (Sigma, Pool, UK). […] A growth control and sterility control were included. The colonies of C. albicans grown overnight on Sabourad dextrose agar were suspended in sterile phosphate-buffered saline (PBS) to get cell density 0.5 McFarland. The inoculum was diluted to get a final concentration of 10^3 CFU/mL in the wells. Plates were inoculated and cultivated at 37 °C for 48 h. The minimum fungistatic concentration was visually evaluated as the lowest concentration of a tested compound, which inhibited 100% of yeast growth. 5-Flucytosin (Sigma, UK) was used as a positive control.

E. faecalis ATCC 29212 = test: time-kill study; type: cell-based, Enterococcus faecalis; conditions: EF
Source text: (§1) Time-kill studies are used to evaluate the dynamics of antibacterial activity. As mentioned above, a pre-test to determine minimum bactericidal concentration (MBC) by sub-cultivation of aliquots on agar was made (see Section 3.4). […] Time-kill studies were made with methicillin-susceptible S. aureus ATCC 29213 and methicillin-resistant MRSA 63718, vancomycin-susceptible E. faecalis ATCC 29212, and all three VRE isolates. Vancomycin was used as a control (Table 6).
(§2) The method of time-kill curves was used to study the bactericidal effect of selected compounds. […] The experiment was performed with S. aureus ATCC 29213, MRSA 63718, E. faecalis ATCC 29212, and all VRE isolates. […] The tubes were inoculated by bacterial inoculum in the exponential phase of growth to get a final concentration of 7.5 × 10^6 CFU/mL. The tubes were incubated statically at 37 °C. Immediately after inoculation and after 4, 6, 8, and 24 h, 100 µL of the sample was serially diluted (1:10) in PBS. Then, 2 × 20 µL from each dilution were put onto a Mueller–Hinton agar plate and cultivated at 37 °C for 24 h. After incubation, CFUs of dilutions containing 5–50 colonies were counted. Results were expressed as a decrease of log10(CFU) in each time compared to the starting inoculum. Bactericidal effect is defined as a −3log decrease of CFU/mL compared to the growth control in time 0. The test was made in duplicate on two separate occasions, and the results were averaged. The growth curves with error bars are shown in Figures S1 and S2 in Supplementary Materials.

VRE 342B = test: time-kill study; type: cell-based, Enterococcus faecalis; conditions: VRE1
Source text: as §1, §2

VRE 368 = test: time-kill study; type: cell-based, Enterococcus faecalis; conditions: VRE2
Source text: as §1, §2

VRE 725B = test: time-kill study; type: cell-based, Enterococcus faecalis; conditions: VRE3
Source text: as §1, §2

S. aureus ATCC 29213 = test: crystal violet uptake (membrane permeability); type: cell-based, Staphylococcus aureus; conditions: 64 µg/mL, 1 h; two-way ANOVA, Tukey's test, p < 0.05
Method: The alternation in membrane permeability was detected by crystal violet assay. Bacterial suspension treated by compounds 1f, 1g, and 1h (all 64 µg/mL) for 1 h was prepared. The uptake of crystal violet was expressed as a percentage compared to the original crystal violet solution.
The method of crystal violet uptake was used to study membrane alteration. Bacterial suspension was cultivated to log phase in CaMH and then harvested at 4500 rpm for 5 min. The cells were washed twice and resuspended in PBS containing 64 µg/mL of the tested compounds. […] A growth control without antibiotics and a control containing the same amount of DMSO as treated tubes were included. The tubes were cultivated at 37 °C for 1 h. After that, the tubes were centrifuged at 4500 rpm for 15 min and washed twice in PBS. The cells were resuspended in PBS containing crystal violet (10 µg/mL). After 15 min incubation at 37 °C and centrifugation (15 min, 4500 rpm), the absorbance of supernatant at 595 nm was measured. The experiment was repeated three times, and the results were averaged. The percentage of crystal violet uptake was counted according to the equation:(1) % of uptake = OD595 of sample/OD595 of crystal violet solution × 100

CCCCCCOc1cccc(NC(=O)OC(CN(CCC)CCC)CN2CCCC2)c1.Cl.Cl (centres unmarked) [1g, 1-[3-(dipropylammonio)-2-({[3-(hexyloxy)phenyl]carbamoyl}oxy)propyl]pyrrolidinium dichloride]
MIC [1]: 16 µg/mL and 30.8 µM
Log10 Difference in CFU/mL from Inoculum (E. faecalis ATCC 29212; 1 × MIC, 4 h): −1.63 log10 CFU/mL
Log10 Difference in CFU/mL from Inoculum (E. faecalis ATCC 29212; 1 × MIC, 6 h): −1.01 log10 CFU/mL
Log10 Difference in CFU/mL from Inoculum (E. faecalis ATCC 29212; 1 × MIC, 8 h): −0.61 log10 CFU/mL
Log10 Difference in CFU/mL from Inoculum (E. faecalis ATCC 29212; 1 × MIC, 24 h): 0.27 log10 CFU/mL
Log10 Difference in CFU/mL from Inoculum (E. faecalis ATCC 29212; 2 × MIC, 4 h): −3.37 * log10 CFU/mL
Log10 Difference in CFU/mL from Inoculum (E. faecalis ATCC 29212; 2 × MIC, 6 h): −3.43 * log10 CFU/mL
Log10 Difference in CFU/mL from Inoculum (E. faecalis ATCC 29212; 2 × MIC, 8 h): −2.68 log10 CFU/mL
Log10 Difference in CFU/mL from Inoculum (E. faecalis ATCC 29212; 2 × MIC, 24 h): 1.04 log10 CFU/mL
Log10 Difference in CFU/mL from Inoculum (E. faecalis ATCC 29212; 4 × MIC, 4 h): −5.62 * log10 CFU/mL
Log10 Difference in CFU/mL from Inoculum (E. faecalis ATCC 29212; 4 × MIC, 6 h): −5.14 * log10 CFU/mL
Log10 Difference in CFU/mL from Inoculum (E. faecalis ATCC 29212; 4 × MIC, 8 h): −5.92 * log10 CFU/mL
Log10 Difference in CFU/mL from Inoculum (E. faecalis ATCC 29212; 4 × MIC, 24 h): −0.31 log10 CFU/mL
Log10 Difference in CFU/mL from Inoculum (VRE 342B; 1 × MIC, 4 h): −0.14 log10 CFU/mL
Log10 Difference in CFU/mL from Inoculum (VRE 342B; 1 × MIC, 6 h): 0.97 log10 CFU/mL
Log10 Difference in CFU/mL from Inoculum (VRE 342B; 1 × MIC, 8 h): 1.01 log10 CFU/mL
Log10 Difference in CFU/mL from Inoculum (VRE 342B; 1 × MIC, 24 h): 1.11 log10 CFU/mL
Log10 Difference in CFU/mL from Inoculum (VRE 342B; 2 × MIC, 4 h): −0.36 log10 CFU/mL
Log10 Difference in CFU/mL from Inoculum (VRE 342B; 2 × MIC, 6 h): −1.89 log10 CFU/mL
Log10 Difference in CFU/mL from Inoculum (VRE 342B; 2 × MIC, 8 h): −0.64 log10 CFU/mL
Log10 Difference in CFU/mL from Inoculum (VRE 342B; 2 × MIC, 24 h): 1.51 log10 CFU/mL
Log10 Difference in CFU/mL from Inoculum (VRE 342B; 4 × MIC, 4 h): −0.92 log10 CFU/mL
Log10 Difference in CFU/mL from Inoculum (VRE 342B; 4 × MIC, 6 h): −1.00 log10 CFU/mL
Log10 Difference in CFU/mL from Inoculum (VRE 342B; 4 × MIC, 8 h): −1.09 log10 CFU/mL
Log10 Difference in CFU/mL from Inoculum (VRE 342B; 4 × MIC, 24 h): 0.77 log10 CFU/mL
Log10 Difference in CFU/mL from Inoculum (VRE 368; 1 × MIC, 4 h): −2.00 log10 CFU/mL
Log10 Difference in CFU/mL from Inoculum (VRE 368; 1 × MIC, 6 h): 0.29 log10 CFU/mL
Log10 Difference in CFU/mL from Inoculum (VRE 368; 1 × MIC, 8 h): 0.25 log10 CFU/mL
Log10 Difference in CFU/mL from Inoculum (VRE 368; 1 × MIC, 24 h): −0.16 log10 CFU/mL
Log10 Difference in CFU/mL from Inoculum (VRE 368; 2 × MIC, 4 h): −2.34 log10 CFU/mL
Log10 Difference in CFU/mL from Inoculum (VRE 368; 2 × MIC, 6 h): −1.97 log10 CFU/mL
Log10 Difference in CFU/mL from Inoculum (VRE 368; 2 × MIC, 8 h): −1.01 log10 CFU/mL
Log10 Difference in CFU/mL from Inoculum (VRE 368; 2 × MIC, 24 h): 0.32 log10 CFU/mL
Log10 Difference in CFU/mL from Inoculum (VRE 368; 4 × MIC, 4 h): −2.72 * log10 CFU/mL
Log10 Difference in CFU/mL from Inoculum (VRE 368; 4 × MIC, 6 h): −2.71 * log10 CFU/mL
Log10 Difference in CFU/mL from Inoculum (VRE 368; 4 × MIC, 8 h): −2.45 log10 CFU/mL
Log10 Difference in CFU/mL from Inoculum (VRE 368; 4 × MIC, 24 h): 0.97 log10 CFU/mL
Log10 Difference in CFU/mL from Inoculum (VRE 725B; 1 × MIC, 4 h): −0.09 log10 CFU/mL
Log10 Difference in CFU/mL from Inoculum (VRE 725B; 1 × MIC, 6 h): −0.29 log10 CFU/mL
Log10 Difference in CFU/mL from Inoculum (VRE 725B; 1 × MIC, 8 h): 0.19 log10 CFU/mL
Log10 Difference in CFU/mL from Inoculum (VRE 725B; 1 × MIC, 24 h): 2.41 log10 CFU/mL
Log10 Difference in CFU/mL from Inoculum (VRE 725B; 2 × MIC, 4 h): −0.75 log10 CFU/mL
Log10 Difference in CFU/mL from Inoculum (VRE 725B; 2 × MIC, 6 h): −0.74 log10 CFU/mL
Log10 Difference in CFU/mL from Inoculum (VRE 725B; 2 × MIC, 8 h): 0.56 log10 CFU/mL
Log10 Difference in CFU/mL from Inoculum (VRE 725B; 2 × MIC, 24 h): 0.43 log10 CFU/mL
Log10 Difference in CFU/mL from Inoculum (VRE 725B; 4 × MIC, 4 h): −1.85 log10 CFU/mL
Log10 Difference in CFU/mL from Inoculum (VRE 725B; 4 × MIC, 6 h): −1.85 log10 CFU/mL
Log10 Difference in CFU/mL from Inoculum (VRE 725B; 4 × MIC, 8 h): −2.15 log10 CFU/mL
Log10 Difference in CFU/mL from Inoculum (VRE 725B; 4 × MIC, 24 h): −2.27 log10 CFU/mL
crystal violet uptake compared with 1% Tween 20 (positive control) (S. aureus ATCC 29213): No statistically significant difference
